Measurements taken from patent publication US8222257B2, “Phosphono-pent-2-en-1-yl nucleosides and analogs” (The Regents of the University of California, priority 2005, dated 2012).
Read-outs that look alike come from different tables or passages of the source.

Columns and labels:
HSV-1 = type: cell-based; settings: Human alphaherpesvirus 1, MRC5, DNA reduction assay in MRC-5 cells
HIV-tLal = type: cell-based; settings: Human immunodeficiency virus 1, MT2, read-out: HIV-1 EC50
in vitro [1] = test: in vitro
in vitro [2] = test: in vitro; remark: listed apart in the source
HCMV = test: Antiviral activity against human CMV in vitro; settings: for EC50: Human betaherpesvirus 5, read-out: EC50 HCMV; for EC90: Human betaherpesvirus 5, read-out: EC90 HCMV
MCMV = test: Antiviral activity against murine CMV in vitro; settings: in Mus musculus; for EC50: read-out: EC50 MCMV; for EC90: read-out: EC90 MCMV
VZV = VZV CPE assay in HFF cells; type: cell-based; settings: Human alphaherpesvirus 3
EBV = EBV Elisa assay in Daudi cells; type: cell-based; settings: human gammaherpesvirus 4, Daudi, read-out: EBV EC50
Wild Type HBV = test: HBV replicative intermediates in vitro, wild type HBV; settings: Hepatitis B virus, read-out: EC50 for intracellular HBV replicative intermediates (HBV R.I.), Wild Type
[3] = Hepatitis B virus, read-out: HBV EC50, DNA reduction assay in 2.2.15 cells
[4] = read-out: HBV EC50, DNA reduction assay in 2.2.15 cells

Row | Structure (SMILES) | EC50 (HSV-1) | EC50 (HIV-tLal) | EC50 (VZV) | EC50 (HBV; [3]) | further results
1 | CCCCCCCCCCCCCCCCOCCCOP(=O)(O)CC/C=C\Cn1ccc(N)nc1=O [HDP-PPen-C, (3Z)-3-(hexadecyloxy)propyl hydrogen 5-(4-amino-2-oxopyrimidin-1(2H)-yl)pent-3-enylphosphonate] | 4.7 µM | 2.5 µM | – | – | –
2 | CCCCCCCC/C=C\CCCCCCCCOCCOP(=O)(O)CC/C=C\Cn1cnc2c(=O)[nH]c(N)nc21 [OLE-PPen-G, (Z)-2-(octadec-9-enyloxy)ethyl hydrogen 5-(2-amino-6-oxo-1,6-dihydropurin-9-yl)pent-3-enylphosphonate] | 0.68 µM | – | – | – | CC50 (in vitro [1]): > 1 µM; CC50 (in vitro [2]): > 1 µM; EC50 (HCMV): 0.47 µM; EC90 (HCMV): 0.89 µM; EC50 (MCMV): 0.028 µM; EC90 (MCMV): 0.12 µM
3 | CCCCCCCCCCCCCCCCOCCCOP(=O)(O)CC/C=C\Cn1cnc2c(N)ncnc21 [HDP-PPen-A] | 17.7 µM | > 10 µM | > 60 µM | 1.1 µM | EC50 (EBV): 0.1 µM; EC50 (HBV; [4]): 2 µM; EC50 (Wild Type HBV): 9.2 µM
4 | Cc1cn(CC=CCCP(=O)(O)O)c(=O)[nH]c1=O [PPen-T, 1-(5-Phosphono-pent-2-en-1-yl)-thymine] | > 30 µM | > 100 µM | > 300 µM | > 30 µM | –
5 | Nc1ccn(CC=CCCP(=O)(O)O)c(=O)n1 [PPen-C, 1-(5-Phosphono-pent-2-en-1-yl)cytosine] | > 30 µM | > 100 µM | > 60 µM | > 30 µM | –
6 | CCCCCCCCCCCCCCCCOCCCOP(=O)(O)CC/C=C\Cn1cnc2c(=O)[nH]c(N)nc21 [HDP-PPen-G, (Z)-3-(hexadecyloxy)propyl hydrogen 5-(2-amino-6-oxo-1,6-dihydropurin-9-yl)pent-3-enylphosphonate] | – | > 10 µM | 0.15 µM | 2.4 µM | EC50 (EBV): 48 µM; EC50 (HBV; [4]): 2.5 µM; EC50 (Wild Type HBV): 8.8 µM
7 | O=c1ccn(CC=CCCP(=O)(O)O)c(=O)[nH]1 [PPen-U, 1-(5-Phosphono-pent-2-en-1-yl)-uracil] | > 30 µM | > 100 µM | > 300 µM | > 30 µM | –
8 | Nc1nc2c(ncn2CC=CCCP(=O)(O)O)c(=O)[nH]1 [PPen-G, 9-(5-Phosphono-pent-2-en-1-yl)-guanine] | > 30 µM | > 100 µM | 7.2 µM | > 30 µM | –
9 | Nc1ncnc2c1ncn2CC=CCCP(=O)(O)O [PPen-A, 9-(5-Phosphono-pent-2-en-1-yl)-adenine] | > 30 µM | > 100 µM | > 300 µM | > 30 µM | EC50 (EBV): > 4 µM
10 | CCCCCCCCCCCCCCCCOCCCOP(=O)(O)CC/C=C\Cn1cc(C)c(=O)[nH]c1=O [HDP-PPen-T] | 0.9 µM | 1 µM | – | – | –
11 | CCCCCCCCCCCCCCCCOCCCOP(=O)(O)CC/C=C\Cn1ccc(=O)[nH]c1=O [HDP-PPen-U, (3Z)-3-(hexadecyloxy)propyl hydrogen 5-(3,4-dihydro-2,4-dioxopyrimidin-1(2H)-yl)pent-3-enylphosphonate] | > 30 µM | > 10 µM | – | > 30 µM | –
12 | CCCCCCCCCCCCCCCCCCOCCOP(=O)(O)CC/C=C\Cn1cnc2c(=O)[nH]c(N)nc21 [ODE-PPen-G, (Z)-2-(octadecyloxy)ethyl hydrogen 5-(2-amino-6-oxo-1,6-dihydropurin-9-yl)pent-3-enylphosphonate] | 4.6 µM | – | – | – | EC50 (HCMV): 0.17 µM; EC90 (HCMV): 0.81 µM; EC50 (MCMV): 0.004 µM; EC90 (MCMV): 0.03 µM
